From PubChem BioAssay (NCI)
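48-hour exposure; five concentrations; linearly interpolated endpoints. TGI: total growth inhibition.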

What was measured:
Assay in all cases: DTP human tumour cell line panel, 48 h
A498 renal = system: A498 renal
PC-3 prostate = system: PC-3 prostate
LOX IMVI melanoma = system: LOX IMVI melanoma
ACHN renal = system: ACHN renal
HOP-62 NSCLC = system: HOP-62 NSCLC
SK-MEL-2 melanoma = system: SK-MEL-2 melanoma
SNB-75 CNS = system: SNB-75 CNS
SN12C renal = system: SN12C renal
NCI-H226 lung = system: NCI-H226 lung
HS 578T breast = system: HS 578T breast
HCT-15 colon = system: HCT-15 colon
NCI-H460 lung = system: NCI-H460 lung
BT-549 breast = system: BT-549 breast
HT29 colon = system: HT29 colon
NCI-H23 lung = system: NCI-H23 lung
SF-295 CNS = system: SF-295 CNS
RXF 393 renal = system: RXF 393 renal
HOP-92 NSCLC = system: HOP-92 NSCLC
786-0 renal = system: 786-0 renal
OVCAR-4 ovarian = system: OVCAR-4 ovarian
KM12 colon = system: KM12 colon
MALME-3M melanoma = system: MALME-3M melanoma
NCI-H522 lung = system: NCI-H522 lung
NCI/ADR-RES ovarian = system: NCI/ADR-RES ovarian
T-47D breast = system: T-47D breast
OVCAR-5 ovarian = system: OVCAR-5 ovarian
OVCAR-3 ovarian = system: OVCAR-3 ovarian
SF-539 CNS = system: SF-539 CNS
IGROV1 ovarian = system: IGROV1 ovarian
OVCAR-8 ovarian = system: OVCAR-8 ovarian
UO-31 renal = system: UO-31 renal
CCRF-CEM leukemia = system: CCRF-CEM leukemia
MCF7 breast = system: MCF7 breast
K-562 leukemia = system: K-562 leukemia
M14 melanoma = system: M14 melanoma
MDA-MB-435 = system: MDA-MB-435
SK-MEL-5 melanoma = system: SK-MEL-5 melanoma
MOLT-4 leukemia = system: MOLT-4 leukemia
SF-268 CNS = system: SF-268 CNS
U251 CNS = system: U251 CNS
HCC-2998 colon = system: HCC-2998 colon
CAKI-1 renal = system: CAKI-1 renal
UACC-62 melanoma = system: UACC-62 melanoma
MDA-MB-231 breast = system: MDA-MB-231 breast
SK-MEL-28 melanoma = system: SK-MEL-28 melanoma
A549 NSCLC = system: A549 NSCLC
RPMI-8226 leukemia = system: RPMI-8226 leukemia
COLO 205 colon = system: COLO 205 colon
HL-60(TB) leukemia = system: HL-60(TB) leukemia
HCT-116 colon = system: HCT-116 colon
TK-10 renal = system: TK-10 renal
MDA-N = system: MDA-N
DU-145 prostate = system: DU-145 prostate
UACC-257 melanoma = system: UACC-257 melanoma
SNB-19 CNS = system: SNB-19 CNS
EKVX NSCLC = system: EKVX NSCLC
SR leukemia = system: SR leukemia
SK-OV-3 ovarian = system: SK-OV-3 ovarian
SW-620 colon = system: SW-620 colon

In the case of `COc1ccc(C2C(C#N)=C(S)N(C3OC(COC(C)=O)C(OC(C)=O)C(OC(C)=O)C3OC(C)=O)C(c3ccccc3)=C2C(C)=O)cc1` (centres undefined), the TGI (A498 renal) is reported as over 100 µM, the TGI (PC-3 prostate) is reported as over 100 µM and the TGI (LOX IMVI melanoma) is reported as over 100 µM. It also gave a TGI (ACHN renal) of over 100 µM, a TGI (HOP-62 NSCLC) of over 100 µM and a TGI (SK-MEL-2 melanoma) of over 100 µM. For the same molecule, the TGI (SNB-75 CNS) was over 100 µM, the TGI (SN12C renal) was over 100 µM and the TGI (NCI-H226 lung) was over 100 µM. For the same molecule, the TGI (HS 578T breast) was over 100 µM, the TGI (HCT-15 colon) was over 100 µM and the TGI (NCI-H460 lung) was over 100 µM. It also gave a TGI (BT-549 breast) of over 100 µM, a TGI (HT29 colon) of over 100 µM and a TGI (NCI-H23 lung) of over 100 µM. The TGI (SF-295 CNS) was over 100 µM, the TGI (RXF 393 renal) was over 100 µM and the TGI (HOP-92 NSCLC) was over 100 µM. It also gave a TGI (786-0 renal) of over 100 µM, a TGI (OVCAR-4 ovarian) of over 100 µM and a TGI (KM12 colon) of over 100 µM. The TGI (MALME-3M melanoma) was over 100 µM, the TGI (NCI-H522 lung) was over 100 µM and the TGI (NCI/ADR-RES ovarian) was over 100 µM. It also gave a TGI (T-47D breast) of 80.1 µM, a TGI (OVCAR-5 ovarian) of over 100 µM and a TGI (OVCAR-3 ovarian) of over 100 µM. The TGI (SF-539 CNS) was over 100 µM, the TGI (IGROV1 ovarian) was over 100 µM and the TGI (OVCAR-8 ovarian) was over 100 µM. For the same molecule, the TGI (UO-31 renal) was 99.5 µM, the TGI (CCRF-CEM leukemia) was over 100 µM and the TGI (MCF7 breast) was over 100 µM. The TGI (K-562 leukemia) was over 100 µM, the TGI (M14 melanoma) was over 100 µM and the TGI (MDA-MB-435) was over 100 µM. The TGI (SK-MEL-5 melanoma) was over 100 µM, the TGI (MOLT-4 leukemia) was over 100 µM and the TGI (SF-268 CNS) was over 100 µM. It also gave a TGI (U251 CNS) of over 100 µM, a TGI (HCC-2998 colon) of over 100 µM and a TGI (CAKI-1 renal) of over 100 µM. The TGI (UACC-62 melanoma) was over 100 µM, the TGI (MDA-MB-231 breast) was over 100 µM and the TGI (SK-MEL-28 melanoma) was over 100 µM. It also gave a TGI (A549 NSCLC) of over 100 µM, a TGI (RPMI-8226 leukemia) of over 100 µM and a TGI (COLO 205 colon) of over 100 µM. For the same molecule, the TGI (HL-60(TB) leukemia) was over 100 µM, the TGI (HCT-116 colon) was over 100 µM and the TGI (TK-10 renal) was over 100 µM. It also gave a TGI (MDA-N) of over 100 µM, a TGI (DU-145 prostate) of over 100 µM and a TGI (UACC-257 melanoma) of over 100 µM. It also gave a TGI (SNB-19 CNS) of over 100 µM.

Work on `NC(CCOCCP(=O)(O)O)C(=O)O` (centres undefined) yielded a TGI (PC-3 prostate) of over 100 µM, a TGI (LOX IMVI melanoma) of over 100 µM and a TGI (ACHN renal) of over 100 µM. The TGI (SK-MEL-2 melanoma) was over 100 µM, the TGI (SNB-75 CNS) was over 100 µM and the TGI (SN12C renal) was over 100 µM. The TGI (HS 578T breast) was over 100 µM, the TGI (HCT-15 colon) was over 100 µM and the TGI (NCI-H460 lung) was over 100 µM. It also gave a TGI (BT-549 breast) of over 100 µM, a TGI (HT29 colon) of over 100 µM and a TGI (NCI-H23 lung) of over 100 µM. For the same molecule, the TGI (SF-295 CNS) was over 100 µM, the TGI (RXF 393 renal) was over 100 µM and the TGI (HOP-92 NSCLC) was over 100 µM. It also gave a TGI (OVCAR-4 ovarian) of over 100 µM, a TGI (KM12 colon) of over 100 µM and a TGI (NCI-H522 lung) of over 100 µM. The TGI (NCI/ADR-RES ovarian) was over 100 µM, the TGI (T-47D breast) was over 100 µM and the TGI (OVCAR-5 ovarian) was over 100 µM. It also gave a TGI (OVCAR-3 ovarian) of over 100 µM, a TGI (SF-539 CNS) of over 100 µM and a TGI (IGROV1 ovarian) of over 100 µM. For the same molecule, the TGI (OVCAR-8 ovarian) was over 100 µM, the TGI (UO-31 renal) was over 100 µM and the TGI (CCRF-CEM leukemia) was over 100 µM. For the same molecule, the TGI (MCF7 breast) was over 100 µM, the TGI (K-562 leukemia) was over 100 µM and the TGI (M14 melanoma) was over 100 µM. For the same molecule, the TGI (MDA-MB-435) was over 100 µM, the TGI (SK-MEL-5 melanoma) was over 100 µM and the TGI (MOLT-4 leukemia) was over 100 µM. The TGI (EKVX NSCLC) was over 100 µM, the TGI (SF-268 CNS) was over 100 µM and the TGI (U251 CNS) was over 100 µM. The TGI (HCC-2998 colon) was over 100 µM, the TGI (CAKI-1 renal) was over 100 µM and the TGI (UACC-62 melanoma) was over 100 µM. The TGI (SR leukemia) was over 100 µM, the TGI (MDA-MB-231 breast) was over 100 µM and the TGI (SK-MEL-28 melanoma) was over 100 µM. It also gave a TGI (SK-OV-3 ovarian) of over 100 µM, a TGI (SW-620 colon) of over 100 µM and a TGI (A549 NSCLC) of over 100 µM. For the same molecule, the TGI (RPMI-8226 leukemia) was over 100 µM, the TGI (COLO 205 colon) was over 100 µM and the TGI (HL-60(TB) leukemia) was over 100 µM. It also gave a TGI (HCT-116 colon) of over 100 µM, a TGI (TK-10 renal) of over 100 µM and a TGI (MDA-N) of over 100 µM. The TGI (DU-145 prostate) was over 100 µM, the TGI (UACC-257 melanoma) was over 100 µM and the TGI (SNB-19 CNS) was over 100 µM.
